# According to ChEMBL document CHEMBL4130359, “Indazole-based ligands for estrogen-related receptor α as potential anti-diabetic agents” (Eur J Med Chem, 2017):
# Assays:
# [1] = target: T1, Steroid hormone receptor ERR1 (Homo sapiens, UniProt P11474); assay: Antagonist activity at His6-tagged ERRalpha LBD (unknown origin) assessed as inhibition of GST-tagged SRC-2 co-activator peptide recruitment after 18 hrs by TR-FRET assay
# T1 sequence (P11474 whole entry): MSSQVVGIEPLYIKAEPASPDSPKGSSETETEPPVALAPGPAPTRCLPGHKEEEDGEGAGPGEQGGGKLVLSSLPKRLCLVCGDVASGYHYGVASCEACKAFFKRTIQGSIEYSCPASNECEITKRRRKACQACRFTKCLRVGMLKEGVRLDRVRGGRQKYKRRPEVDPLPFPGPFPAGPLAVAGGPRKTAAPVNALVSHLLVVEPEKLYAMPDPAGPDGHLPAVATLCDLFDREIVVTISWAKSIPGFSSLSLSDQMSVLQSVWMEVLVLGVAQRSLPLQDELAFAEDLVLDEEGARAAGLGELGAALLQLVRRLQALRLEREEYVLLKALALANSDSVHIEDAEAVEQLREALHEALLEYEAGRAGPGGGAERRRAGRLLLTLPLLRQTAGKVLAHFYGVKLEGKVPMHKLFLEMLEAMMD
# Rattus norvegicus [2] = assay: Decrease in fed plasma insulin level in Zucker rat sub-chronic fa/fa prediabetic model assessed as change in plasma insulin level at 10 mg/kg, po qd for 4 days measured on day 5 relative to control; format: functional; parameters: scale not given: the % may be the effect or the level left
# Rattus norvegicus [3] = assay: Decrease in fed plasma triglyceride level in Zucker rat sub-chronic fa/fa prediabetic model assessed as change in plasma triglyceride level at 10 mg/kg, po qd for 4 days measured on day 5 relative to control; format: functional; parameters: scale not given: the % may be the effect or the level left
# [4] = target: Voltage-gated inwardly rectifying potassium channel KCNH2 (Homo sapiens, UniProt Q12809); assay: Displacement of [3H]astemizole from human ERG; conditions: for inhibition (INH): human
# Sequence of Voltage-gated inwardly rectifying potassium channel KCNH2 (Q12809 whole entry): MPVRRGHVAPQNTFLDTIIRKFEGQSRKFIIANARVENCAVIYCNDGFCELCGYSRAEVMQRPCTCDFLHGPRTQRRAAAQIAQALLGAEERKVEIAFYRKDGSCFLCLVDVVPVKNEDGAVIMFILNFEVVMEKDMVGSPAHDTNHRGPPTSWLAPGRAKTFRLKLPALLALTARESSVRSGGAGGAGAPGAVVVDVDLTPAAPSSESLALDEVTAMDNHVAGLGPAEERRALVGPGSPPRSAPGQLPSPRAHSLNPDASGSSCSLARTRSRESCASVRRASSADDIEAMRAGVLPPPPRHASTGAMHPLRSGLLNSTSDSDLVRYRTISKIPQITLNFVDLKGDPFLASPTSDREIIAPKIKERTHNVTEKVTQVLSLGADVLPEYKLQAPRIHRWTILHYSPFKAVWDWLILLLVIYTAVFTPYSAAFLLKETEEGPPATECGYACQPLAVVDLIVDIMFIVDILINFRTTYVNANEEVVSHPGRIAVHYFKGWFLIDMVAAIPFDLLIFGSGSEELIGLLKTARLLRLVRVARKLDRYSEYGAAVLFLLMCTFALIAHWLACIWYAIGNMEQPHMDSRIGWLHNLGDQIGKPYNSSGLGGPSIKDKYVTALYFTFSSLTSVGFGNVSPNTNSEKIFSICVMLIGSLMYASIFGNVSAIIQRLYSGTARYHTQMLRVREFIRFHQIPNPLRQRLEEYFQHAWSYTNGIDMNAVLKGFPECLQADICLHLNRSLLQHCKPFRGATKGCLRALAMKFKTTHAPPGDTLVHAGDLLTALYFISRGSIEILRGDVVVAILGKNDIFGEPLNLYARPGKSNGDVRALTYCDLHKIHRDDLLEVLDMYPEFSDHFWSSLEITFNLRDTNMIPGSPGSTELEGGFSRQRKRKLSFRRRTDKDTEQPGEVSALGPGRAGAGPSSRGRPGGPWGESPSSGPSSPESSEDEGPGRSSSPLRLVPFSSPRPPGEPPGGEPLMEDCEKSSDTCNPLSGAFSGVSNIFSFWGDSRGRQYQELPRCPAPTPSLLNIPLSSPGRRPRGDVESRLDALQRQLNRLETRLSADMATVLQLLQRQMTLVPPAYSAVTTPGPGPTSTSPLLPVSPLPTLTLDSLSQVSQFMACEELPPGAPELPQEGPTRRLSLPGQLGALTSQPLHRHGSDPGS
# [5] = Drug uptake in Sprague-Dawley rat plasma at 10 mg/kg, po via gavage by LC-MS analysis; format: ADME, organism-based; conditions: in vivo
# Rattus norvegicus [6] = assay: Decrease in fed plasma free fatty acid level in Zucker rat sub-chronic fa/fa prediabetic model at 10 mg/kg, po qd for 4 days measured on day 5 relative to control; format: functional; parameters: scale not given: the % may be the effect or the level left
# Rattus norvegicus [7] = assay: Toxicity in Zucker rat sub-chronic fa/fa prediabetic model assessed as increase in body weight at 10 mg/kg, po qd for 4 days; format: organism-based; conditions: in vivo, 96 h
# Cytochrome P450 2C19 = Cytochrome P450 2C19 (Homo sapiens, UniProt P33261); assay: Inhibition of CYP2C19 (unknown origin) in microsomes; format: ADME
# Sequence of Cytochrome P450 2C19 (P33261 whole entry): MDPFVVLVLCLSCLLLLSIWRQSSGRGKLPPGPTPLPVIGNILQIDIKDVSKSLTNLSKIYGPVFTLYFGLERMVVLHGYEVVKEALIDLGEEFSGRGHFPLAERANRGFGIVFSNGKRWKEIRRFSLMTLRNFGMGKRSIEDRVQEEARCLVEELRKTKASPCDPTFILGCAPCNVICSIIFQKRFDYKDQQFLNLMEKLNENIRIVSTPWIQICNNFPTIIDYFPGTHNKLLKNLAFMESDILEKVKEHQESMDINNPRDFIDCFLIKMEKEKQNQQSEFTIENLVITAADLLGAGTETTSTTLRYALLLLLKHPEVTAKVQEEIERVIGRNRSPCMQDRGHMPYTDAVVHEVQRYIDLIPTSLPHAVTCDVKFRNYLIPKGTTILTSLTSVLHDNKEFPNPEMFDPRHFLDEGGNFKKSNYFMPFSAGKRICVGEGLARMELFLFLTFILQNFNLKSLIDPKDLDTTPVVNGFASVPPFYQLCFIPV
# Cytochrome P450 3A4 = Cytochrome P450 3A4 (Homo sapiens, UniProt P08684); assay: Inhibition of CYP3A4 (unknown origin) in microsomes; format: ADME
# Sequence of Cytochrome P450 3A4 (P08684 whole entry): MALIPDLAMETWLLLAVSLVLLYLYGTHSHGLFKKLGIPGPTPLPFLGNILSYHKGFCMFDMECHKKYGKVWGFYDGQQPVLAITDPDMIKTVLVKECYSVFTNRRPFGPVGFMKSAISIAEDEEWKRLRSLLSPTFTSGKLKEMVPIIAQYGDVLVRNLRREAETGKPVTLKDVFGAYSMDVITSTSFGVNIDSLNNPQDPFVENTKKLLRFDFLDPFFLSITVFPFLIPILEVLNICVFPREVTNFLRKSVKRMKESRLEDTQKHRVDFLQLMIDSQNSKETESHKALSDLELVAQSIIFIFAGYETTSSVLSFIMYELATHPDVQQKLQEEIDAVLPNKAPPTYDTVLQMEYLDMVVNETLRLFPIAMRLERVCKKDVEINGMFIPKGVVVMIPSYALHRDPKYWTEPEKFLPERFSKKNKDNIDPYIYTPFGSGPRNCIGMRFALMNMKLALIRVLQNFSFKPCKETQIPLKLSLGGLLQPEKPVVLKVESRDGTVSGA
# Rattus norvegicus [8] = assay: Decrease in fed plasma glucose level in Zucker rat sub-chronic fa/fa prediabetic model at 10 mg/kg, po qd for 4 days measured on day 5 relative to control; format: functional; parameters: scale not given: the % may be the effect or the level left
# Cytochrome P450 2C9 = Cytochrome P450 2C9 (Homo sapiens, UniProt P11712); assay: Inhibition of CYP2C9 (unknown origin) in microsomes; format: ADME
# Sequence of Cytochrome P450 2C9 (P11712 whole entry): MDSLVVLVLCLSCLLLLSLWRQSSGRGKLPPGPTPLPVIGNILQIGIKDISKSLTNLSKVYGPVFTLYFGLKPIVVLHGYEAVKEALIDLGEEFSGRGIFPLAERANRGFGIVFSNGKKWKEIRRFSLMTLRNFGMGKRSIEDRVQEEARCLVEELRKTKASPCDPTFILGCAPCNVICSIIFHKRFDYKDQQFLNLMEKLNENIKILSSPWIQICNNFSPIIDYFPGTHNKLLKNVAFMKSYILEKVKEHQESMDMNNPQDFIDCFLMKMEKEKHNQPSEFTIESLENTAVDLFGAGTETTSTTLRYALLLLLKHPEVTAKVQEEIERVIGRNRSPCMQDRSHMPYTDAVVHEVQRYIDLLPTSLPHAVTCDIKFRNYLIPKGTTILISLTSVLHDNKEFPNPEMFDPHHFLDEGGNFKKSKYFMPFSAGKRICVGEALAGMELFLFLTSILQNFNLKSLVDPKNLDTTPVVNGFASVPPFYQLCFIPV
# Rattus norvegicus [9] = assay: Antidiabetic activity in Zucker rat sub-chronic fa/fa prediabetic model assessed as decrease in plasma glucose AUC (0 to 120 mins) at 10 mg/kg, po qd during 10 days study by OGTT relative to control; format: functional; parameters: scale not given: the % may be the effect or the level left
# Rattus norvegicus [10] = assay: Toxicity in Zucker rat sub-chronic fa/fa prediabetic model assessed as increase in food consumption at 10 mg/kg, po qd during 10 days study; format: organism-based; conditions: in vivo, 240 h
# Rattus norvegicus [11] = assay: Toxicity in Zucker rat sub-chronic fa/fa prediabetic model assessed as increase in body weight at 10 mg/kg, po qd during 10 days study; format: organism-based; conditions: in vivo, 240 h
# Rattus norvegicus [12] = assay: Toxicity in Zucker rat sub-chronic fa/fa prediabetic model assessed as effect on liver enzymes at 10 mg/kg, po qd during 10 days study; format: organism-based; conditions: in vivo, 240 h
# [13] = target: Steroid hormone receptor ERR2 (Homo sapiens, UniProt O95718); assay: Antagonist activity at recombinant GST-tagged human ERRbeta LBD assessed as inhibition of fluorescein-labeled coactivator peptide recruitment preincubated with enzyme followed by coactivator addition by LanthaScreen TR-FRET assay
# Sequence of Steroid hormone receptor ERR2 (O95718 whole entry, the tested form may be a part): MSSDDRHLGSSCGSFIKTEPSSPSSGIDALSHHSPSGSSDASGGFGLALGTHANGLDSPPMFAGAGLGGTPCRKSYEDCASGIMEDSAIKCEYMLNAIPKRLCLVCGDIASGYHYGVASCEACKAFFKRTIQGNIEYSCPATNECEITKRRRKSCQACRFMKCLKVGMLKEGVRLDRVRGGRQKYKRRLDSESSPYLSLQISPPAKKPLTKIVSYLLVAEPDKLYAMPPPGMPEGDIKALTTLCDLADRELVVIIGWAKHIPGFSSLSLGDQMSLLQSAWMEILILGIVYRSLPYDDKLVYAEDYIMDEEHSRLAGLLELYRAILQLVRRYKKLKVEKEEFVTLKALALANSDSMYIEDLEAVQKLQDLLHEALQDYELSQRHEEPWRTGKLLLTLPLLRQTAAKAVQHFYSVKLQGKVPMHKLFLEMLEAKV
SMILES,IC50 [1],Activity (Rattus norvegicus [2]),Activity (Rattus norvegicus [3]),also measured
O=C1S/C(=C\c2ccc3c(cnn3Cc3ccc(Cl)cc3C(F)(F)F)c2)C(=O)N1CCN1CCOCC1,43 nM,,,
CS(=O)(=O)NC(=O)CN1C(=O)S/C(=C\c2ccc3c(cnn3Cc3ccc(Cl)cc3C(F)(F)F)c2)C1=O,18 nM,-14%,13%,
O=C1S/C(=C\c2ccc3c(cnn3Cc3ccc(Cl)cc3C(F)(F)F)c2)C(=O)N1[C@@H]1CCNC[C@H]1F (relative stereo),34 nM,,,IC50 [4]: 21 µM
NS(=O)(=O)NC(=O)CN1C(=O)S/C(=C\c2ccc3c(cnn3Cc3ccc(Cl)cc3C(F)(F)F)c2)C1=O,19 nM,-51%,-14%,
CN1CCC[C@H]1CN1C(=O)S/C(=C\c2ccc3c(cnn3Cc3ccc(Cl)cc3C(F)(F)F)c2)C1=O,5 nM,-59%,-37%,Cp [5]: < 100 ng/mL
CN(C)S(=O)(=O)NC(=O)CN1C(=O)S/C(=C\c2ccc3c(cnn3Cc3ccc(Cl)cc3C(F)(F)F)c2)C1=O,23 nM,-29%,-46%,
O=C1S/C(=C\c2ccc3c(cnn3Cc3ccc(Cl)cc3C(F)(F)F)c2)C(=O)N1[C@@H]1CCNC[C@H]1O (relative stereo),25 nM,,,inhibition (INH) [4]: Active
O=C1S/C(=C\c2ccc3c(cnn3Cc3ccc(Cl)cc3C(F)(F)F)c2)C(=O)N1C[C@H]1COCCN1,15 nM,-52%,-61%,Cp [5]: < 100 ng/mL; inhibition (INH) [4]: Active
Cc1nn(Cc2ccc(Cl)cc2C(F)(F)F)c2ccc(/C=C3\SC(=O)N(CC(=O)NS(=O)(=O)N4CCCC4)C3=O)cc12,54 nM,-10%,-23%,Drug uptake [5]: Active
COc1ccc(Cn2ncc3cc(/C=C4\SC(=O)N(CCN5CCOCC5)C4=O)ccc32)c(C(F)(F)F)c1,8 nM,-21%,-19%,
Cc1nn(Cc2ccc(Cl)cc2C(F)(F)F)c2ccc(/C=C3\SC(=O)N(CC(=O)O)C3=O)cc12,28 nM,-18%,-4%,
CN1CC[C@@H](N2C(=O)S/C(=C\c3ccc4c(cnn4Cc4ccc(Cl)cc4C(F)(F)F)c3)C2=O)[C@H](O)C1 (relative stereo),23 nM,,,inhibition (INH) [4]: Active
O=C1S/C(=C\c2ccc3c(cnn3Cc3ccc(Cl)cc3C(F)(F)F)c2)C(=O)N1Cc1nnn[nH]1,13 nM,-44%,-51%,
CN1CC[C@H](N2C(=O)S/C(=C\c3ccc4c(cnn4Cc4ccc(Cl)cc4C(F)(F)F)c3)C2=O)[C@H](F)C1 (relative stereo),45 nM,-73%,-57%,Activity (Rattus norvegicus [6]): -35%; Activity (Rattus norvegicus [7]): Non-Toxic; inhibition (INH) (Cytochrome P450 2C19): Not Active; inhibition (INH) (Cytochrome P450 3A4): Not Active; Activity (Rattus norvegicus [8]): -43%; inhibition (INH) (Cytochrome P450 2C9): Not Active; inhibition (INH) [4]: Not Active
O=C(O)CN1C(=O)S/C(=C\c2ccc3c(cnn3Cc3ccc(C(F)(F)F)cc3C(F)(F)F)c2)C1=O,26 nM,,,
CN1CC[C@H](N2C(=O)S/C(=C\c3ccc4c(cnn4Cc4ccc(Cl)cc4C(F)(F)F)c3)C2=O)[C@@H](F)C1,22 nM,-52%,-51%,Activity (Rattus norvegicus [9]): -37%; Activity (Rattus norvegicus [8]): -27%; Activity (Rattus norvegicus [10]): Toxic; Activity (Rattus norvegicus [11]): Toxic; Activity (Rattus norvegicus [12]): Toxic

SMILES,IC50 [1],Activity (Rattus norvegicus [2]),Activity (Rattus norvegicus [3]),also measured
COc1ccc(Cn2ncc3cc(/C=C4\SC(=O)N(CCN5CCCC5)C4=O)ccc32)c(C(F)(F)F)c1,46 nM,,,
O=C(O)C1CCC(N2C(=O)S/C(=C\c3ccc4c(cnn4Cc4ccc(Cl)cc4C(F)(F)F)c3)C2=O)CC1 (configuration not stated),12 nM,-30%,-19%,
COc1ccc(Cn2ncc3cc(/C=C4\SC(=O)N(CC(=O)O)C4=O)ccc32)c(C(F)(F)F)c1,9 nM,-9%,21%,
N[C@@H](CO)CN1C(=O)S/C(=C\c2ccc3c(cnn3Cc3ccc(Cl)cc3C(F)(F)F)c2)C1=O,23 nM,-33%,-45%,Cp [5]: < 100 ng/mL; inhibition (INH) [4]: Active
CN1CCC(N2C(=O)S/C(=C\c3ccc4c(cnn4Cc4ccc(Cl)cc4C(F)(F)F)c3)C2=O)CC1,19 nM,,,inhibition (INH) (Cytochrome P450 3A4): Active
O=C1S/C(=C\c2ccc3c(cnn3Cc3ccc(Cl)cc3C(F)(F)F)c2)C(=O)N1C1CCNCC1,16 nM,,,inhibition (INH) (Cytochrome P450 2C19): Active; inhibition (INH) (Cytochrome P450 3A4): Active; inhibition (INH) (Cytochrome P450 2C9): Active
CCC(=C(c1ccc(O)cc1)c1ccc(OCCN(C)C)cc1)c1ccccc1,,,,IC50 [13]: 886 nM
O=C1S/C(=C\c2ccc3c(cnn3Cc3ccc(C(F)(F)F)cc3C(F)(F)F)c2)C(=O)N1CCN1CCCC1,580 nM,,,
O=C1S/C(=C\c2ccc3c(cnn3Cc3ccc(Cl)cc3C(F)(F)F)c2)C(=O)N1CCN1CCCC1,17 nM,-49%,-30%,Cp [5]: < 100 ng/mL; inhibition (INH) [4]: Active
C[C@H](N)CN1C(=O)S/C(=C\c2ccc3c(cnn3Cc3ccc(Cl)cc3C(F)(F)F)c2)C1=O,24 nM,-60%,-55%,Cp [5]: < 100 ng/mL
O=C(CN1C(=O)S/C(=C\c2ccc3c(cnn3Cc3ccc(Cl)cc3C(F)(F)F)c2)C1=O)NS(=O)(=O)N1CCCC1,25 nM,-47%,1%,Drug uptake [5]: Active
O=C1S/C(=C\c2ccc3c(cnn3Cc3ccc(Cl)cc3C(F)(F)F)c2)C(=O)N1C1CCN(CCO)CC1,15 nM,-77%,-40%,inhibition (INH) [4]: Active
COc1ccc(Cn2ncc3cc(/C=C4\SC(=O)N(C5CCC(C(=O)O)CC5)C4=O)ccc32)c(C(F)(F)F)c1 (configuration not stated),,-11%,32%,
CC(=O)NS(=O)(=O)CN1C(=O)S/C(=C\c2ccc3c(cnn3Cc3ccc(Cl)cc3C(F)(F)F)c2)C1=O,8 nM,-58%,-37%,
O=C(O)CN1C(=O)S/C(=C\c2ccc3c(cnn3Cc3ccc(Cl)cc3C(F)(F)F)c2)C1=O,9 nM,-50%,-14%,
